From ChEMBL document CHEMBL4507259 (2021)

Columns and labels:
[1] = target: D(1A) dopamine receptor (Homo sapiens) (UniProt P21728); assay: D1 (h) CEREP ligand profiling; conditions: filed as antagonist, Compound concentration 10.0 uM
[2] = tested on: Epidermal growth factor receptor (Homo sapiens), P00533 [UNDEFINED MUTATION]; conditions: Compound concentration 1000.0 nM
[3] = target: Serine/threonine-protein kinase Nek3 (Homo sapiens) (UniProt P51956); conditions: Compound concentration 1000.0 nM
[4] = target: Serine/threonine-protein kinase 36 (Homo sapiens) (UniProt Q9NRP7); conditions: Compound concentration 1000.0 nM
[5] = target: Serine/threonine-protein kinase 32A (Homo sapiens) (UniProt Q8WU08); conditions: Compound concentration 1000.0 nM
Chain of Serine/threonine-protein kinase 32A (Homo sapiens) (Q8WU08 whole entry): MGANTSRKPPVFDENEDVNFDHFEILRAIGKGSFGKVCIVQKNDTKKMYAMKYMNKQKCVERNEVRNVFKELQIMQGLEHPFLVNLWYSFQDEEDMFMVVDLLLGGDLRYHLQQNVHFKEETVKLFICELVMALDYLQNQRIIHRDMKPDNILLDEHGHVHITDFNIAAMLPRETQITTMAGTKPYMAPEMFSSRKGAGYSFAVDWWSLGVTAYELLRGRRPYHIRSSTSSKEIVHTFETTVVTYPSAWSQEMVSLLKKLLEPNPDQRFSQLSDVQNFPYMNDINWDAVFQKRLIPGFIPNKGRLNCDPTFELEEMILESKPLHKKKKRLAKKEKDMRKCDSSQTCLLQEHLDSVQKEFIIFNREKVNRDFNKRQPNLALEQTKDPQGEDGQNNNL

[6] = target: Peripheral plasma membrane protein CASK (Homo sapiens) (UniProt O14936); conditions: Compound concentration 1000.0 nM
[7] = target: Serine/threonine-protein kinase N2 (Homo sapiens) (UniProt Q16513); conditions: Compound concentration 1000.0 nM
[8] = target: Fibroblast growth factor receptor 3 (Homo sapiens) (UniProt P22607); conditions: Compound concentration 1000.0 nM
[9] = tested on: Tyrosine-protein kinase ABL1 (Homo sapiens), P00519 [E255K]; conditions: Compound concentration 1000.0 nM
[10] = target: Serine/threonine-protein kinase TAO1 (Homo sapiens) (UniProt Q7L7X3); conditions: Compound concentration 1000.0 nM
[11] = target: cAMP-dependent protein kinase catalytic subunit PRKX (Homo sapiens) (UniProt P51817); conditions: Compound concentration 1000.0 nM
Chain of cAMP-dependent protein kinase catalytic subunit PRKX (Homo sapiens) (P51817 whole entry): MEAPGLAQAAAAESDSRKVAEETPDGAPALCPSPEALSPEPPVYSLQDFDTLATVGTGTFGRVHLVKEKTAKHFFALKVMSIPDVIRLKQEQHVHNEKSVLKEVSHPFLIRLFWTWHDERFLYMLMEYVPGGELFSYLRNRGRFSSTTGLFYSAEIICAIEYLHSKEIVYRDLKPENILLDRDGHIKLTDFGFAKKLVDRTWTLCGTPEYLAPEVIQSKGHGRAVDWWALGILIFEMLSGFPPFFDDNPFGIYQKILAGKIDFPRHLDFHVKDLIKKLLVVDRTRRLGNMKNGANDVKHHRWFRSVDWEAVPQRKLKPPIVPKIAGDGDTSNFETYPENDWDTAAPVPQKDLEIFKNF

[12] = target: Serine/threonine-protein kinase/endoribonuclease IRE1 (Homo sapiens) (UniProt O75460); conditions: Compound concentration 1000.0 nM
[13] = target: cAMP-dependent protein kinase catalytic subunit beta (Homo sapiens) (UniProt P22694); conditions: Compound concentration 1000.0 nM
[14] = target: Casein kinase I isoform gamma-3 (Homo sapiens) (UniProt Q9Y6M4); conditions: Compound concentration 1000.0 nM
Chain of Casein kinase I isoform gamma-3 (Homo sapiens) (Q9Y6M4 whole entry, looked up, canonical isoform): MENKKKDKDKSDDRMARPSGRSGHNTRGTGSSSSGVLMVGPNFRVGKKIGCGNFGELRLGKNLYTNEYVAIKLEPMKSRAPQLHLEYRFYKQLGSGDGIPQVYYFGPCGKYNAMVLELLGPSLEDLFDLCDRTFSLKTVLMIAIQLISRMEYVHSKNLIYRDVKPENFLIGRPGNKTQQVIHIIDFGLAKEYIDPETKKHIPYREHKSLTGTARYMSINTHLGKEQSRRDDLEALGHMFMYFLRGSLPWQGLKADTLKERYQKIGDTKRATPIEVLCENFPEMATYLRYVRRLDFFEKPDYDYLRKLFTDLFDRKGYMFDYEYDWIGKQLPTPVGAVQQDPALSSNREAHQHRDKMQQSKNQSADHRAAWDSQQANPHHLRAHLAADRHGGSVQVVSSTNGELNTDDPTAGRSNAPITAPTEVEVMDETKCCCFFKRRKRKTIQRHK

[15] = target: Ephrin type-A receptor 1 (Homo sapiens) (UniProt P21709); conditions: Compound concentration 1000.0 nM
[16] = target: Tyrosine-protein kinase ABL1 (Homo sapiens) (UniProt P00519); conditions: Compound concentration 1000.0 nM
[17] = target: Ribosomal protein S6 kinase alpha-6 (Homo sapiens) (UniProt Q9UK32); conditions: Compound concentration 1000.0 nM
[18] = tested on: Mast/stem cell growth factor receptor Kit (Homo sapiens), P10721 [D816V]; conditions: Compound concentration 1000.0 nM
[19] = target: Bone morphogenetic protein receptor type-2 (Homo sapiens) (UniProt Q13873); conditions: Compound concentration 1000.0 nM
[20] = target: Tyrosine-protein kinase Fes/Fps (Homo sapiens) (UniProt P07332); conditions: Compound concentration 1000.0 nM
[21] = target: Macrophage colony-stimulating factor 1 receptor (Homo sapiens) (UniProt P07333); conditions: Compound concentration 1000.0 nM
[22] = tested on: Tyrosine-protein kinase ABL1 (Homo sapiens), P00519 [T315I]; conditions: Compound concentration 1000.0 nM
[23] = target: Mitogen-activated protein kinase 3 (Homo sapiens) (UniProt P27361); conditions: Compound concentration 1000.0 nM
[24] = tested on: Tyrosine-protein kinase ABL1 (Homo sapiens), P00519 [Q252H]; conditions: Compound concentration 1000.0 nM
[25] = target: Tyrosine-protein kinase receptor Tie-1 (Homo sapiens) (UniProt P35590); conditions: Compound concentration 1000.0 nM
[26] = target: Serine/threonine-protein kinase 17A (Homo sapiens) (UniProt Q9UEE5); conditions: Compound concentration 1000.0 nM
[27] = target: Mitogen-activated protein kinase 9 (Homo sapiens) (UniProt P45984); conditions: Compound concentration 1000.0 nM
[28] = target: Ephrin type-A receptor 2 (Homo sapiens) (UniProt P29317); conditions: Compound concentration 1000.0 nM
[29] = target: TGF-beta receptor type-1 (Homo sapiens) (UniProt P36897); conditions: Compound concentration 1000.0 nM
[30] = target: Dual specificity mitogen-activated protein kinase kinase 2 (Homo sapiens) (UniProt P36507); conditions: Compound concentration 1000.0 nM
[31] = tested on: Receptor-type tyrosine-protein kinase FLT3 (Homo sapiens), P36888 [D835Y]; conditions: Compound concentration 1000.0 nM
[32] = target: Sodium-dependent noradrenaline transporter (Homo sapiens) (UniProt P23975); assay: norepinephrine transporter (h) CEREP ligand profiling; conditions: filed as antagonist, Compound concentration 10.0 uM
[33] = tested on: Leucine-rich repeat serine/threonine-protein kinase 2 (Homo sapiens), Q5S007 [G2019S]; conditions: Compound concentration 1000.0 nM
[34] = target: 5'-AMP-activated protein kinase catalytic subunit alpha-2 (Homo sapiens) (UniProt P54646); conditions: Compound concentration 1000.0 nM
[35] = target: 5-hydroxytryptamine receptor 2A (Homo sapiens) (UniProt P28223); assay: 5-HT2A (h) CEREP ligand profiling; conditions: filed as antagonist, Compound concentration 10.0 uM
[36] = target: Serine/threonine-protein kinase Nek5 (Homo sapiens) (UniProt Q6P3R8); conditions: Compound concentration 1000.0 nM
Chain of Serine/threonine-protein kinase Nek5 (Homo sapiens) (Q6P3R8 whole entry): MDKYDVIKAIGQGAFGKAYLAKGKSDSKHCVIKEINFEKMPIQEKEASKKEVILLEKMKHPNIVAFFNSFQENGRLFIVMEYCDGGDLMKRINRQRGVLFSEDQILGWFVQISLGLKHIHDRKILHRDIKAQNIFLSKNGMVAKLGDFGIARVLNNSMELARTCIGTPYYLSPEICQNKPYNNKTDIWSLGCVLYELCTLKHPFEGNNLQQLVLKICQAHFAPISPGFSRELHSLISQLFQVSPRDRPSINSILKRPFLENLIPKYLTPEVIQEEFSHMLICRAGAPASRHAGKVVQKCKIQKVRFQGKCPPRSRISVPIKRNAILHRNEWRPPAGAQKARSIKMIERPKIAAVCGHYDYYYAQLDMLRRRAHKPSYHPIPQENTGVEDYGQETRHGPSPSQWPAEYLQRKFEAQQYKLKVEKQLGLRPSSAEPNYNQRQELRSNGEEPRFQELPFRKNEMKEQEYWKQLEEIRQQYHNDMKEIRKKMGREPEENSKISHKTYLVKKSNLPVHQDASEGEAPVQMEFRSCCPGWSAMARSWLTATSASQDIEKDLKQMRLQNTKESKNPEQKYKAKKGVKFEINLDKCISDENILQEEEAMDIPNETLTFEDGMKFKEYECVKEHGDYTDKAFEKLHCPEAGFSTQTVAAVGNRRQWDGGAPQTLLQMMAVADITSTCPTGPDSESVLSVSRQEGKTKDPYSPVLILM

[37] = target: Serine/threonine-protein kinase RIO1 (Homo sapiens) (UniProt Q9BRS2); conditions: Compound concentration 1000.0 nM
Chain of Serine/threonine-protein kinase RIO1 (Homo sapiens) (Q9BRS2 whole entry): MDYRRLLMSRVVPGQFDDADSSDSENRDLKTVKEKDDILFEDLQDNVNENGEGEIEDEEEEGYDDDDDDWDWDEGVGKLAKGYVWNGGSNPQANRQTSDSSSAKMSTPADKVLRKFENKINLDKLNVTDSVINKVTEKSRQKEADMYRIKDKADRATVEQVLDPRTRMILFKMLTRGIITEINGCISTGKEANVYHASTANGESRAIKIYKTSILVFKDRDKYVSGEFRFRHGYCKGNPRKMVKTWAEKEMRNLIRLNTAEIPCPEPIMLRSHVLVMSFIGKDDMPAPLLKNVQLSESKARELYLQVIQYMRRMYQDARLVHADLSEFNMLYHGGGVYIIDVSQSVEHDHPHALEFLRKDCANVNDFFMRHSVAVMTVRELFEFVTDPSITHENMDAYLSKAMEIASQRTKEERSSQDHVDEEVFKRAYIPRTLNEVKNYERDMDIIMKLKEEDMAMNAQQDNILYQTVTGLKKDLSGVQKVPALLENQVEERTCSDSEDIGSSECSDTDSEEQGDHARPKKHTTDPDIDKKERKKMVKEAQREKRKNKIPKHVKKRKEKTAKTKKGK

[38] = target: Ribosomal protein S6 kinase alpha-2 (Homo sapiens) (UniProt Q15349); conditions: Compound concentration 1000.0 nM
[39] = target: Phosphatidylinositol 4-phosphate 5-kinase type-1 gamma (Homo sapiens) (UniProt O60331); conditions: Compound concentration 1000.0 nM
[40] = tested on: Phosphatidylinositol 4,5-bisphosphate 3-kinase catalytic subunit alpha isoform (Homo sapiens), P42336 [M1043I]; conditions: Compound concentration 1000.0 nM
[41] = target: Platelet-derived growth factor receptor alpha (Homo sapiens) (UniProt P16234); conditions: Compound concentration 1000.0 nM
Chain of Platelet-derived growth factor receptor alpha (Homo sapiens) (P16234 whole entry): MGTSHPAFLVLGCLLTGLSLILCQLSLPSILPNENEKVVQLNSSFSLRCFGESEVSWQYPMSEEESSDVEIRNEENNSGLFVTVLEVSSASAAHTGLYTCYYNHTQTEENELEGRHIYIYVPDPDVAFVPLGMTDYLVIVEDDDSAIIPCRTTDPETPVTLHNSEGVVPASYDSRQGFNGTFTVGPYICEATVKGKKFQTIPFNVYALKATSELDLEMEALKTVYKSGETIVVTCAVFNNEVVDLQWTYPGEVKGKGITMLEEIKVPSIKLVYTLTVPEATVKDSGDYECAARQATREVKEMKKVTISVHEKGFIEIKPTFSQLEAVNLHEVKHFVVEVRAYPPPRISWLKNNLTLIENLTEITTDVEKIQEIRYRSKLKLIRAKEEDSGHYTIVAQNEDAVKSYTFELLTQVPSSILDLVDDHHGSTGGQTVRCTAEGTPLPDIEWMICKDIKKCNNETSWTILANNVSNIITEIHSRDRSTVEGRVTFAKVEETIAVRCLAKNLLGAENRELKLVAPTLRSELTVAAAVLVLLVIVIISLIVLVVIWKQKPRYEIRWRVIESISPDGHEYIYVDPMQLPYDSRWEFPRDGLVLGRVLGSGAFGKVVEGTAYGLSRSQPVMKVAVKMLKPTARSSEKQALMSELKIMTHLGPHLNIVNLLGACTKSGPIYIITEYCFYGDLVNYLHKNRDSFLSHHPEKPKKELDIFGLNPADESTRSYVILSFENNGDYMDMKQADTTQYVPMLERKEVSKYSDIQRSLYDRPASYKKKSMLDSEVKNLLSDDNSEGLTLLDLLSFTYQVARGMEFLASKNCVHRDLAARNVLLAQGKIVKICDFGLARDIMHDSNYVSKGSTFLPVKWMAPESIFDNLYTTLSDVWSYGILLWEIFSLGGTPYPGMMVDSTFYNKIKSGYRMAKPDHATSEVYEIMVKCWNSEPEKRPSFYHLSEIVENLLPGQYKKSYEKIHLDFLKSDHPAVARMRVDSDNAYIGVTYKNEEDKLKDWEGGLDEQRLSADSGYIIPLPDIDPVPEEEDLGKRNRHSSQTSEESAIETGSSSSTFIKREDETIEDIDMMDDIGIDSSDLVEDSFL

[42] = target: Ribosomal protein S6 kinase alpha-4 (Homo sapiens) (UniProt O75676); conditions: Compound concentration 1000.0 nM
[43] = target: Phosphatidylinositol 4-kinase beta (Homo sapiens) (UniProt Q9UBF8); conditions: Compound concentration 1000.0 nM
[44] = target: Serine/threonine-protein kinase TBK1 (Homo sapiens) (UniProt Q9UHD2); conditions: Compound concentration 1000.0 nM
[45] = target: Serine/threonine-protein kinase MARK2 (Homo sapiens) (UniProt Q7KZI7); conditions: Compound concentration 1000.0 nM

Chain of Epidermal growth factor receptor (Homo sapiens), P00533 [UNDEFINED MUTATION] (P00533 whole entry, looked up, change not shown): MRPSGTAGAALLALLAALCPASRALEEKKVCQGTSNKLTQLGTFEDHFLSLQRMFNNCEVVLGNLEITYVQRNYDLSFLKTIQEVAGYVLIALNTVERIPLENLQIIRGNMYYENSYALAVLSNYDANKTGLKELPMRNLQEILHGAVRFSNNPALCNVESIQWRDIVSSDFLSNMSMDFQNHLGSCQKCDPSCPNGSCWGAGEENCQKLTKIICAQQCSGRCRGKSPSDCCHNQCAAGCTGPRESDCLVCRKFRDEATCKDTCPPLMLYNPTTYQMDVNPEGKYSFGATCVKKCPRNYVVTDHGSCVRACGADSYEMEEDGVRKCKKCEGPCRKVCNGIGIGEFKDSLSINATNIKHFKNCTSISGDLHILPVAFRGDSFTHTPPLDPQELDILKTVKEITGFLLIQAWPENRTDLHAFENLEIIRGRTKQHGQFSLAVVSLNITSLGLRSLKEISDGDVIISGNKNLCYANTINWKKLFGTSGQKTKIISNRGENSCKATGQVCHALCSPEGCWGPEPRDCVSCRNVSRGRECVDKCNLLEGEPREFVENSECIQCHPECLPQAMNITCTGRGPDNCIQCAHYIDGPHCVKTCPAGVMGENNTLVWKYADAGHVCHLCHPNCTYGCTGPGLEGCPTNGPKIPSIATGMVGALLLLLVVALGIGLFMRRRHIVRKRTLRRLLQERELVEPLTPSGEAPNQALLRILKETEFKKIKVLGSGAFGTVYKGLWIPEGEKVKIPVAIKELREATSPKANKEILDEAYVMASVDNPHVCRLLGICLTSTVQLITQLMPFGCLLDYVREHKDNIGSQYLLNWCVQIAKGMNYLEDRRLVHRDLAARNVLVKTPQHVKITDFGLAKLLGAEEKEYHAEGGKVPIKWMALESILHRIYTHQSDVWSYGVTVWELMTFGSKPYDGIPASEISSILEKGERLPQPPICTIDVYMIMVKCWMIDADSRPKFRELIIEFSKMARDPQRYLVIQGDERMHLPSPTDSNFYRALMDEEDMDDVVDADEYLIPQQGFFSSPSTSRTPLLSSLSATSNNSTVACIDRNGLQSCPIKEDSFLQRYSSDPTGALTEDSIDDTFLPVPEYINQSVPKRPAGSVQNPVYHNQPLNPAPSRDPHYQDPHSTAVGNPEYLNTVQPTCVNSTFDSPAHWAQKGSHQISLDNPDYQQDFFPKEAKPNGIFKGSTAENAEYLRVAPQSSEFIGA

CNC(=O)Nc1ccc2c(c1)CC[C@@]21OC(=O)N(CC(=O)N(Cc2ccc(F)cc2)[C@@H](C)C(F)(F)F)C1=O [A-485]
inactive: inhibition [1] -4% | residual activity [2] 95% | residual activity [3] 58% | residual activity [4] 77% | residual activity [5] 88% | residual activity [6] 86% | residual activity [7] 97% | residual activity [8] 82% | residual activity [9] 75% | residual activity [10] 94% | residual activity [11] 92% | residual activity [12] 56% | residual activity [13] 100% | residual activity [14] 84% | residual activity [15] 88% | residual activity [16] 72% | residual activity [17] 84% | residual activity [18] 70% | residual activity [19] 100% | residual activity [20] 94% | residual activity [21] 99% | residual activity [22] 100% | residual activity [23] 92% | residual activity [24] 72% | residual activity [25] 89% | residual activity [26] 100% | residual activity [27] 70% | residual activity [28] 76% | residual activity [29] 98% | residual activity [30] 96% | residual activity [31] 100% | inhibition [32] 12% | residual activity [33] 100% | residual activity [34] 99% | inhibition [35] 14% | residual activity [36] 100% | residual activity [37] 100% | residual activity [38] 90% | residual activity [39] 100% | residual activity [40] 100% | residual activity [41] 93% | residual activity [42] 100% | residual activity [43] 74% | residual activity [44] 83% | residual activity [45] 100%

CNC(=O)Nc1ccc2c(c1)[C@@]1(CC2)OC(=O)N(CC(=O)N(Cc2ccc(F)cc2)[C@@H](C)C(F)(F)F)C1=O [A-486]
inactive: inhibition [1] -5% | residual activity [2] 96% | residual activity [3] 69% | residual activity [4] 100% | residual activity [5] 100% | residual activity [6] 66% | residual activity [7] 100% | residual activity [8] 92% | residual activity [9] 100% | residual activity [10] 97% | residual activity [11] 100% | residual activity [12] 100% | residual activity [13] 100% | residual activity [14] 89% | residual activity [15] 100% | residual activity [16] 84% | residual activity [17] 100% | residual activity [18] 96% | residual activity [19] 100% | residual activity [20] 85% | residual activity [21] 98% | residual activity [22] 87% | residual activity [23] 100% | residual activity [24] 88% | residual activity [25] 100% | residual activity [26] 88% | residual activity [27] 69% | residual activity [28] 100% | residual activity [29] 89% | residual activity [30] 99% | residual activity [31] 96% | inhibition [32] 4% | residual activity [33] 100% | residual activity [34] 57% | inhibition [35] 8% | residual activity [36] 95% | residual activity [37] 100% | residual activity [38] 100% | residual activity [39] 100% | residual activity [40] 100% | residual activity [41] 83% | residual activity [42] 100% | residual activity [43] 71% | residual activity [44] 84% | residual activity [45] 100%
